Laboratory results as given in publication PMC10635480, “An engineered thermally tolerant apo-cytochrome scaffold for metal-less incorporation of heme derivative” (PLOS ONE, 2023).

Experiments:
[1] = target: T1, rC552 C14A (cytochrome c552, apo-form) (Thermus thermophilus, UniProt Q5SME3, C31A); assay: time-dependent UV-Vis reconstitution; format: binding; settings: equimolar 5 uM, 25 °C
T1 construct: gene cycA; recombinant, E. coli BL21(DE3), pET-rC552 C14A; no tag mentioned; heme-free apo-form isolated by butyl-Sepharose

[2] = target: T2, rC552 C14A (cytochrome c552, apo-form) (Thermus thermophilus, UniProt Q5SME3, C31A/M86F); format: binding
T2 construct: gene cycA; recombinant, E. coli BL21(DE3), pET-rC552 C14A; no tag mentioned; heme-free apo-form isolated by butyl-Sepharose
T2 sequence (Q5SME3 18-148 C31A/M86F): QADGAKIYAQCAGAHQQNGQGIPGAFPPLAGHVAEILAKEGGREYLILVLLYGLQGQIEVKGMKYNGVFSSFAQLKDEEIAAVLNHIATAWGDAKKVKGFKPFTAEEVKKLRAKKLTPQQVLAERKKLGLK

T1 sequence (Q5SME3 18-148 C31A): as the sequence (Q5SME3 18-148 C31A/M86F) above, with F69M counted along it

SMILES: C=CC1=C(C)c2cc3[nH]c(cc4nc(cc5[nH]c(cc1n2)c(C)c5CCC(=O)O)C(CCC(=O)O)=C4C)c(C)c3C=C [protoporphyrin IX (metal-free)]
- time-dependent UV-Vis reconstitution [1]: Time-dependent UV–Vis spectra show a rather slow reconstitution process while mixing equal concentrations
- Tm of reconstituted protein (not dTm) [2]: 58 °C
